Laboratory results: patent US12492173B2, “Herbicidal substituted N-tetrazolyl aryl carboxamides” (Bayer Aktiengesellschaft, priority 2019, dated 2025)

Columns and labels:
Type in all cases: in vivo
[1] = system: Echinochloa crus-galli; assay: Post-emergence herbicidal action, ECHCG; design: key: % herbicidal action vs untreated; 100 = plants died, 0 = like control
How it was run: (§1)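 One-leaf-stage weeds, raised from seed in greenhouse sandy loam, received a single foliar spray of compound as wettable powder or emulsion concentrate with 0.2% wetting agent added. Growth continued under optimal conditions for about 3 weeks before percent damage was scored by eye against controls.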

[2] = system: Viola tricolor; assay: Post-emergence herbicidal action, VIOTR; design: key: % herbicidal action vs untreated; 100 = plants died, 0 = like control; details: for Herbicidal action against VIOTR: comparative experiment
How it was run: as §1

[3] = system: Polygonum convolvulus; assay: Post-emergence herbicidal action, POLCO; details: for Herbicidal action against POLCO: comparative experiment, 5 g of a.i./ha
How it was run: as §1

[4] = system: Veronica persica; assay: Pre-emergence herbicidal action, VERPE; design: key to Herbicidal action against VERPE: % activity: 100 = plants have died, 0 = like control plants; details: for herbicidal action VERPE / herbicidal activity VERPE: dosage 320 g/ha; for herbicidal activity VERPE: scored visually after 3 weeks vs untreated controls (100% = plants have died); for Herbicidal action against VERPE: comparative experiment
How it was run: (§2)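 Herbicidal activity is expressed in percent, scored by eye after a 3-week greenhouse period, with 0% matching untreated plants and 100% meaning death. Compounds, as wettable powders or emulsion concentrates, are applied pre-emergence to the covering soil.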

[5] = system: Veronica persica; assay: Post-emergence herbicidal action, VERPE; design: key: % herbicidal action vs untreated; 100 = plants died, 0 = like control
How it was run: as §1

[6] = system: Viola tricolor; assay: Pre-emergence herbicidal action, VIOTR; design: key to Herbicidal action against VIOTR: % activity: 100 = plants have died, 0 = like control plants; details: for herbicidal action VIOTR / herbicidal activity VIOTR: dosage 320 g/ha; for herbicidal activity VIOTR: scored visually after 3 weeks vs untreated controls (100% = plants have died); for Herbicidal action against VIOTR: comparative experiment
How it was run: as §2

Structure (SMILES) | herbicidal action ECHCG ([1]; Dosage 80 g/ha) | herbicidal action VIOTR ([2]; Dosage 80 g/ha) | herbicidal action POLCO ([3]; Dosage 80 g/ha) | herbicidal action VERPE ([5]; Dosage 80 g/ha) | herbicidal action ECHCG ([1]; post-emergence, dosage 80 g/ha) | herbicidal action VIOTR ([2]; post-emergence, dosage 80 g/ha) | herbicidal action POLCO ([3]; post-emergence, dosage 80 g/ha) | herbicidal activity VERPE [4] | herbicidal action VERPE ([5]; post-emergence, dosage 80 g/ha) | herbicidal activity VIOTR [6] | other results
CCCn1nnnc1NC(=O)c1ccc(C(F)(F)F)c(CSC)c1SC [Example 3-161] | 90 | 100 | 80 | 100 |  |  |  |  |  |  | herbicidal action VERPE [4]: 100%; herbicidal action VIOTR [6]: 100%
Cn1nnnc1NC(=O)c1ccc(C(F)(F)F)c(CS(=O)(=O)C2CC2)c1Cl [Example 1-304] |  |  |  |  | 100% | 100% | 100% | 100% | 100% | 100% | 
Cn1nnnc1NC(=O)c1ccc(I)c(CS(C)(=O)=O)c1Cl [Example 1-364] | 100 | 100 | 100 | 100 |  |  |  | 100% |  | 100% | Herbicidal action against VERPE ([4]; 20 g of a.i./ha): 100
CCn1nnnc1NC(=O)c1ccc(Cl)c(CSC)c1Cl [Example 2-559] | 100 | 100 | 80 | 100 |  |  |  |  |  |  | herbicidal action VERPE [4]: 100%; herbicidal action VIOTR [6]: 100%
CCCn1nnnc1NC(=O)c1ccc(C(F)(F)F)c(CSCC2CC2)c1Cl [Example 3-314] |  |  |  |  | 100% | 100% | 100% | 100% | 100% | 100% | 
CCn1nnnc1NC(=O)c1ccc(C(F)F)c(CS(C)(=O)=O)c1Cl [Example 2-322] |  |  |  |  | 100% | 100% | 100% | 100% | 90% | 100% | 
CCCn1nnnc1NC(=O)c1ccc(C(F)(F)F)c(C[S+]([O-])CC)c1Br (stereo not shown) [Example 3-384] | 90 | 100 | 90 | 100 |  |  |  | 100% |  | 100% | 
CCCn1nnnc1NC(=O)c1ccc(C(F)(F)F)c(CS(C)(=O)=O)c1SC [Example 3-163] | 90 | 100 | 90 | 100 |  |  |  | 100% |  | 100% | 
CCn1nnnc1NC(=O)c1ccc(C(F)(F)F)c(C[S+]([O-])CC2CC2)c1Cl (stereo not shown) [Example 2-315] | 100 | 100 | 100 | 100 |  |  |  | 100% |  | 100% | 
COc1c(C(=O)Nc2nnnn2C)ccc(Cl)c1CSC [Example 1-570] |  |  |  |  |  |  |  |  |  |  | Herbicidal action against ECHCG ([1]; post-emergence, dosage 80 g/ha): 100; Herbicidal action against VIOTR ([2]; post-emergence, 5 g of a.i./ha): 60; Herbicidal action against POLCO ([3]; post-emergence): 30; herbicidal action VERPE [4]: 80%; Herbicidal action against VERPE ([5]; post-emergence, dosage 80 g/ha): 90; Herbicidal action against VIOTR ([6]; 20 g of a.i./ha): 70; herbicidal action VIOTR [6]: 80%
Cn1nnnc1NC(=O)c1ccc(C(F)(F)F)c(CS(=O)(=O)CC2CC2)c1Cl [Example 1-316] | 100 | 100 | 100 | 100 |  |  |  | 100% |  | 100% | 
Cn1nnnc1NC(=O)c1ccc(C(F)(F)F)c(CS(C)(=O)=O)c1C(F)(F)C(F)(F)F [Example 1-552] | 90 | 90 | 90 | 100 |  |  |  | 100% |  | 100% | 
CSCc1c(I)ccc(C(=O)Nc2nnnn2C)c1Cl [Example 1-362] |  |  |  |  | 100% | 100% | 90% | 100% | 100% | 100% | Herbicidal action against VERPE ([4]; 20 g of a.i./ha): 60
CCn1nnnc1NC(=O)c1ccc(C(F)F)c(CSC)c1Cl [Example 2-320] | 100 | 100 | 100 | 100 |  |  |  | 100% |  | 100% | 
CCn1nnnc1NC(=O)c1ccc(C(F)(F)F)c(CS(=O)(=O)CC)c1Cl [Example 2-301] | 90 | 100 | 90 | 100 |  |  |  |  |  |  | herbicidal action VERPE [4]: 100%; herbicidal action VIOTR [6]: 100%
CSCc1c(C(F)(F)F)ccc(C(=O)Nc2nnnn2C)c1C [Example 1-83] |  |  |  |  | 90% | 90% | 90% | 100% | 100% | 100% | 
CCCn1nnnc1NC(=O)c1ccc(C(F)(F)F)c(CS(=O)(=O)CC)c1Cl [Example 3-301] | 90 | 100 | 100 | 80 |  |  |  |  |  |  | herbicidal action VERPE [4]: 100%; herbicidal action VIOTR [6]: 100%
Cn1nnnc1NC(=O)c1ccc(C(F)(F)F)c(CSC2CC2)c1Cl [Example 1-302] |  |  |  |  | 100% | 100% | 100% | 100% | 90% | 100% | 
CCn1nnnc1NC(=O)c1ccc(C(F)(F)F)c(C[S+]([O-])CC)c1Cl (stereo not shown) [Example 2-300] |  |  |  |  | 100% | 100% | 100% | 100% | 100% | 100% | 
CCCn1nnnc1NC(=O)c1ccc(C(F)F)c(CSC)c1SC [Example 3-170] | 90 | 100 | 90 | 90 |  |  |  | 100% |  | 100% | 
CCn1nnnc1NC(=O)c1ccc(C(F)F)c(C[S+](C)[O-])c1SC (stereo not shown) [Example 2-171] | 90 | 100 | 90 | 100 |  |  |  | 100% |  | 100% | 
CCSCc1c(C(F)F)ccc(C(=O)Nc2nnnn2C)c1Cl [Example 1-323] |  |  |  |  | 100% | 100% | 90% | 100% | 100% | 100% | 
CCCn1nnnc1NC(=O)c1ccc(C(F)(F)F)c(C[S+](C)[O-])c1SC (stereo not shown) [Example 3-162] |  |  |  |  | 100% | 100% | 100% | 100% | 100% | 100% | 
CCn1nnnc1NC(=O)c1ccc(C(F)F)c(CSC)c1SC [Example 2-170] | 100 | 100 | 90 | 90 |  |  |  | 100% |  | 100% | 
CCSCc1c(C(F)(F)F)ccc(C(=O)Nc2nnnn2C)c1Cl [Example 1-299] |  |  |  |  | 90% | 100% | 80% | 100% | 100% | 100% | Herbicidal action against POLCO ([3]; post-emergence): 60; Herbicidal action against VERPE ([4]; 20 g of a.i./ha): 100; Herbicidal action against VERPE ([5]; comparative experiment, post-emergence, 5 g of a.i./ha): 100
CCn1nnnc1NC(=O)c1ccc(C(F)(F)F)c(C[S+](C)[O-])c1Cl (stereo not shown) [Example 2-297] |  |  |  |  | 100% | 100% | 90% | 100% | 100% | 100% | 
CCSCc1c(C(F)(F)F)ccc(C(=O)Nc2nnnn2C)c1Br [Example 1-383] |  |  |  |  | 90% | 100% | 90% | 100% | 100% | 100% | Herbicidal action against VIOTR ([2]; post-emergence, 20 g of a.i./ha): 100; Herbicidal action against VERPE ([4]; 80 g of a.i./ha): 100; Herbicidal action against VERPE ([5]; comparative experiment, post-emergence, 20 g of a.i./ha): 100; Herbicidal action against VIOTR ([6]; 80 g of a.i./ha): 100
CCSCc1c(C(F)(F)F)ccc(C(=O)Nc2nnnn2CC)c1Cl [Example 2-299] |  |  |  |  | 90% | 100% | 90% | 100% | 100% | 100% | 
